The results in this text go back to patent US10981932B2, “Macrocyclic indole derivatives” (Bayer Aktiengesellschaft, priority 2016, dated 2021).

The target of one data set is MCL-1 (Homo sapiens, UniProt Q07820). Put plainly: Protein-protein interaction assay MCL-1/Noxa BH3 peptide (MCL-1 assay), TR-FRET. Conditions: MBP-MCL-1 / Noxa BH3-derived peptide, median. The class given is binding. In a few lines:
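Displacement of the biotinylated Noxa BH3 peptide from MBP-tagged human MCL-1 (1 nM) is detected by time-resolved FRET. Compounds are tested in duplicate across eleven concentrations up to 20 μM, incubated 1 h at 22 °C and overnight at 4 °C, and IC50 is fitted with a four-parameter equation.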
On the technique in general: Time-resolved FRET reads energy transfer from a long-lived donor to a nearby acceptor.

The test system of data set [1] is SUDHL5. Nature of the data set: Induction of caspase-3/7 activity (Caspase-Glo 3/7), SUDHL5. In kind it is cell-based. The conditions noted are these: caspase-3/7 induction, SUDHL5 cells, 3 h treatment; median. In a few lines:
(§1)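 Caspase-Glo 3/7 luminescence, 3 h compound exposure, 37 °C, humidified. Minus medium-only blank. EC50 fit: C0=1, plateau = reference max induction.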

The subject of data set [2] is SUDHL10. Put plainly: Induction of caspase-3/7 activity (Caspase-Glo 3/7), SUDHL10. The class given is cell-based. Conditions: caspase-3/7 induction, SUDHL10 cells, 3 h treatment, median. The gist of the method:
as §1

Data set [3] concerns SUDHL5. Put plainly: Anti-proliferative effect (CellTiter-Glo, 72 h), SUDHL5. The class given is cell-based. Conditions: SUDHL5 cells, antiproliferation, 72 h incubation, median, read-out: Antiproli SUDHL5 [M] (median). In a few lines: (§2)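 CTG luminescence read-out after 72 h compound exposure, 37 °C, humidified. Time-zero reference plate read at plating.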
Another data set concerns A2780. Nature of the data set: Anti-proliferative effect (CellTiter-Glo, 72 h), A2780. The class given is cell-based. The conditions noted are these: A2780 cells, median, read-out: IC50 antiproliferation assay A2780 [M] (median). In a few lines: as §2
Background: ATP-based viability assays read luminescence as a measure of living cells.

In data set [4] the test system is SUDHL10. Put plainly: Induction of cytotoxicity (CellTiter-Glo, 5 h), SUDHL10.
Where [5] appears, read: Homo sapiens, SU-DHL10, 5 h, read-out: Cytotox SUDHL10 [M] (median), SUDHL10 cells, cytotoxicity induction, CellTiter-Glo, 5 h incubation, median.
Setting [6] is: read-out: Cytotox SUDHL10 [M] (median), SUDHL10 cells, cytotoxicity induction, CellTiter-Glo, 5 h incubation, median.

Molecules are shown by their SMILES. Where “and” joins values, the source holds several entries; their conditions need not be identical. Identical values can stand only once. Counter-ions that a name gives are not always drawn. Like-named read-outs stand apart in the source and are kept apart here.

Chain of MCL-1 (Q07820 whole entry): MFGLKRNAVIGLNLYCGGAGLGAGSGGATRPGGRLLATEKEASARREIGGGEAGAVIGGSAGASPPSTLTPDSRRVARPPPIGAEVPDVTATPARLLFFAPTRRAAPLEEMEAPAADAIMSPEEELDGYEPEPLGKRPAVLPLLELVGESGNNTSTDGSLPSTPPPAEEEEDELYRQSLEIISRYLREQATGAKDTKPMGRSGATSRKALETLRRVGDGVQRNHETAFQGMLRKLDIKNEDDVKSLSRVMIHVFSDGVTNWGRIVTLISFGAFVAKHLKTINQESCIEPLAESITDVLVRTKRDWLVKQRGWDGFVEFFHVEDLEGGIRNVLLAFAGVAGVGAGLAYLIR

`CCn1nc2c(c1C1CC1)-c1cccc3c(CCCOc4cccc5ccccc45)c(C(=O)O)n(c13)CCCCOC2` (single isomer, unassigned; enantiomer 1) [Example 082, 3-cyclopropyl-2-ethyl-7-[3-(naphthalen-1-yloxy)propyl]-2,10,11,12,13,15-hexahydropyrazolo[4′,3′:9,10][1,6]oxazacycloundecino[8,7,6-hi]indole-8-carboxylic acid-N-ethylethanamine Salt (Enantiomer 1)]: the IC50 at MCL-1 was 0.00437 µM; with SUDHL5 [3] (Homo sapiens, SU-DHL-5, 72 h) it was 1.81e-05 M; in the data set on A2780 (Homo sapiens, A2780, 72 h), 1.68e-05 M; with SUDHL10 [4] (setting [5]) it was above 3.3e-05 M. Moreover, the EC50 – broadly, the concentration that produces a half-maximal response – with SUDHL5 [1] was found to be 8.69 µM; in the data set with SUDHL10 [2] (Homo sapiens, SU-DHL10, 3 h), 30.5 µM.

Regarding `COCCn1nc2c(c1C1CC1)-c1cccc3c(CCCOc4cccc5ccccc45)c(C(=O)O)n(c13)CCCCOC2` (single isomer, unassigned; enantiomer 1) [Example 085, 3-Cyclopropyl-2-(2-methoxyethyl)-7-[3-(naphthalen-1-yloxy)propyl]-2,10,11,12,13,15-hexahydropyrazolo[4′,3′:9,10][1,6]oxazacycloundecino[8,7,6-hi]indole-8-carboxylic acid-N-ethylethanamine Salt (Enantiomer 1)], the IC50 is 0.00451 µM on MCL-1; 6.22e-06 M in the data set with SUDHL5 [3]; 2.15e-05 M in the data set with A2780 (Homo sapiens, A2780, 72 h); 1.97e-05 M in the data set with SUDHL10 [4] (setting [5]). The EC50 in the data set with SUDHL5 [1] stood at 3.59 µM; with SUDHL10 [2], 15.5 µM.

With `Cc1c2c(nn1C1CC1)COCCCCn1c(C(=O)O)c(CCCOc3cccc4ccccc34)c3cccc-2c31` (single isomer, unassigned; enantiomer 1) [Example 093, 2-cyclopropyl-3-methyl-7-[3-(naphthalen-1-yloxy)propyl]-2,10,11,12,13,15-hexahydropyrazolo[4′,3′:9,10][1,6]oxazacycloundecino[8,7,6-hi]indole-8-carboxylic acid-N-ethylethanamine Salt (Enantiomer 1)], the IC50 on MCL-1 turned out to be 0.00119 µM; in the data set on SUDHL5 [3], 3.38e-06 M; in the data set with A2780 (Homo sapiens, A2780, 72 h) it was 2.71e-05 M; with SUDHL10 [4] (setting [6]), 7.2e-06 M. For the same molecule, the EC50 with SUDHL5 [1] stood at 2.83 µM; in the data set on SUDHL10 [2], 6.64 µM.

Consider `COCCn1nc2c(c1C)-c1cccc3c(CCCOc4cccc5ccccc45)c(C(=O)O)n(c13)CCCCOC2` (single isomer, unassigned; enantiomer 1) [Example 107, 2-(2-methoxyethyl)-3-methyl-7-[3-(naphthalen-1-yloxy)propyl]-2,10,11,12,13,15-hexahydropyrazolo[4′,3′:9,10][1,6]oxazacycloundecino[8,7,6-hi]indole-8-carboxylic acid-N-ethylethanamine Salt (Enantiomer 1)], for which the IC50 at MCL-1 was 0.00171 µM; in the data set on SUDHL5 [3], 3.82e-06 M; with A2780, > 3.3e-05 M and 2.08e-05 M; in the data set with SUDHL10 [4] (setting [6]) it was 4.65e-06 M. The concentration for a half-maximal effect (EC50) in the data set on SUDHL5 [1] worked out at 1.47 µM; in the data set with SUDHL10 [2], 4.91 µM.

Regarding `CCc1c2c(nn1C)CN(C)CCCn1c(C(=O)O)c(CCCOc3cccc4ccccc34)c3ccc(C)c-2c31` (single isomer, unassigned; enantiomer 1) [Example 145, 11-Ethyl-7,10,12-trimethyl-1-[3-(1-naphthyloxy)propyl]-4,5,6,7,8,10-hexahydropyrazolo[3′,4′:7,8][1,5]diazecino[9,10,1-hi]indole-2-carboxylic acid-N-ethylethanamine Salt (Enantiomer 1)], the IC50 on MCL-1 was determined as 0.00117 µM; in the data set on SUDHL5 [3] it was 1.85e-06 M; with A2780 (Homo sapiens, A2780, 72 h) it was 1.36e-05 M; in the data set with SUDHL10 [4] (setting [6]), 2.4e-06 M. Further, the figures for the EC50 in the data set with SUDHL5 [1] and in the data set with SUDHL10 [2] were 0.889 µM and 2.57 µM, respectively.

With `CCc1c2c(nn1C)COCCCCn1c(C(=O)O)c(CCCOc3cccc4ccccc34)c3cccc-2c31` (single isomer, unassigned; enantiomer 1) [Example 148, 3-Ethyl-2-methyl-7-[3-(1-naphthyloxy)propyl]-2,10,11,12,13,15-hexahydropyrazolo[4′,3′:9,10][1,6]oxazacycloundecino[8,7,6-hi]indole-8-carboxylic acid-N-ethylethanamine Salt (Enantiomer 1)], the IC50 at MCL-1 is 0.000919 µM; in the data set with SUDHL5 [3] it was 2.56e-06 M; in the data set with A2780 (Homo sapiens, A2780, 72 h), 2e-05 M; in the data set with SUDHL10 [4] (setting [6]), 2.4e-06 M. Further, the EC50 stood at 0.881 µM with SUDHL5 [1] and 3.48 µM in the data set on SUDHL10 [2].

As to `CCc1c2c(nn1C)COCCCCn1c(C(=O)O)c(CCCOc3cccc4ccccc34)c3ccc(C)c-2c31` (single isomer, unassigned; enantiomer 1) [Example 154, 3-Ethyl-2,4-dimethyl-7-[3-(1-naphthyloxy)propyl]-2,10,11,12,13,15-hexahydropyrazolo[4′,3′:9,10][1,6]oxazacycloundecino[8,7,6-hi]indole-8-carboxylic acid-N-ethylethanamine Salt (Enantiomer 1)], the IC50 on MCL-1 was 0.00128 µM; in the data set on SUDHL5 [3], 2.26e-06 M; in the data set on A2780 (Homo sapiens, A2780, 72 h), 1.72e-05 M; with SUDHL10 [4] (setting [6]) it was 2.03e-06 M. The EC50 with SUDHL5 [1] was 0.661 µM; in the data set on SUDHL10 [2] it was 1.7 µM.

As for `Cn1nc(COc2ccc(N3CCN(S(C)(=O)=O)CC3)cc2)c2c1COCCCCn1c(C(=O)O)c(CCCOc3cccc4ccccc34)c3cccc-2c31` (single isomer, unassigned; enantiomer 2) [Example 1-10, 1-methyl-3-({4-[4-(methylsulfonyl)piperazin-1-yl]phenoxy}methyl)-7-[3-(naphthalen-1-yloxy)propyl]-1,10,11,12,13,15-hexahydropyrazolo[4′,3′:9,10][1,6]oxazacycloundecino[8,7,6-hi]indole-8-carboxylic acid (enantiomer 2)], the IC50 against MCL-1 is 0.00093 µM; in the data set on SUDHL5 [3], 1.26e-06 M; in the data set on A2780 it was 1.19e-05 M; in the data set on SUDHL10 [4] (setting [6]) it was 4.74e-07 M. For the same molecule, the half-maximal effective concentration (EC50) in the data set with SUDHL5 [1] worked out at 0.486 µM; in the data set on SUDHL10 [2], 0.755 µM.

`Cn1nc(COc2ccc(N3CCN(S(=O)(=O)C4CC4)CC3)cc2)c2c1COCCCCn1c(C(=O)O)c(CCCOc3cccc4ccccc34)c3cccc-2c31` (single isomer, unassigned; enantiomer 2) [Example 1-13, 3-({4-[4-(cyclopropylsulfonyl)piperazin-1-yl]phenoxy}methyl)-1-methyl-7-[3-(naphthalen-1-yloxy)propyl]-1,10,11,12,13,15-hexahydropyrazolo[4′,3′:9,10][1,6]oxazacycloundecino[8,7,6-hi]indole-8-carboxylic Acid (Enantiomer 2)]: the IC50 worked out at 0.000796 µM on MCL-1, 7.58e-07 M with SUDHL5 [3], 7.74e-06 M in the data set on A2780 and 4.36e-07 M in the data set on SUDHL10 [4] (setting [6]). The EC50 in the data set on SUDHL5 [1] came to 0.324 µM; with SUDHL10 [2], 0.614 µM.

As for `Cc1nn(C)c2c1-c1cccc3c(CCCOc4ccc(F)c5ccccc45)c(C(=O)O)n(c13)CCCCOC2` (single isomer, unassigned; enantiomer 2) [Example 023, 7-{3-[(4-fluoronaphthalen-1-yl)oxy]propyl}-1,3-dimethyl-1,10,11,12,13,15-hexahydropyrazolo[4′3′:9,10][1,6]oxazacycloundecino[8,7,6-hi]indole-8-carboxylic acid-N-ethylethanamine Salt (Enantiomer 2)], the IC50 on MCL-1 is 0.00169 µM; with SUDHL5 [3], 4.32e-06 M; in the data set on A2780, 2e-05 M and > 3.3e-05 M; in the data set with SUDHL10 [4] (setting [6]) it was 5.85e-06 M. Further, the EC50 was determined as 2.15 µM in the data set on SUDHL5 [1] and 7.46 µM in the data set on SUDHL10 [2].

On to `Cc1c2c(nn1CCN1CCOCC1)CN(C)CCCn1c(C(=O)O)c(CCCOc3cccc4ccccc34)c3cccc-2c31` (single isomer, unassigned; enantiomer 2) [Example 061, 7,11-dimethyl-10-[2-(morpholin-4-yl)ethyl]-1-[3-(naphthalen-1-yloxy)propyl]-4,5,6,7,8,10-hexahydropyrazolo[3′,4′:7,8][1,5]diazecino[9,10,1-hi]indole-2-carboxylic Acid (Enantiomer 2)], for which the IC50 against MCL-1 worked out at 0.0322 µM; in the data set on SUDHL5 [3] it was 8.04e-06 M; with A2780, 1.14e-05 M; in the data set on SUDHL10 [4] (setting [6]), 1.75e-05 M. Moreover, the concentration for a half-maximal effect (EC50) stood at 21.9 µM in the data set on SUDHL5 [1] and 18.6 µM in the data set on SUDHL10 [2].

Consider `Cc1ccc2c(CCCOc3cccc4ccccc34)c(C(=O)O)n3c2c1-c1c(nn(C)c1C)CN(C)CCC3` (single isomer, unassigned; enantiomer 2) [Example 074, 7,10,11,12-tetramethyl-1-[3-(naphthalen-1-yloxy)propyl]-4,5,6,7,8,10-hexahydropyrazolo[3′,4′:7,8][1,5]diazecino[9,10,1-hi]indole-2-carboxylic Acid (Enantiomer 2)], for which the IC50 on MCL-1 was 0.0269 µM; with SUDHL5 [3] it was 1.14e-05 M; in the data set on A2780 it was 1.3e-05 M; in the data set on SUDHL10 [4] (setting [6]) it was 1.17e-05 M. For the same molecule, the EC50 in the data set with SUDHL5 [1] and with SUDHL10 [2] was above 33 µM throughout.
